# Data reported in BindingDB's records for doi:10.1016/S0960-894X(01)80876-3 (1993).
# Assay: Ability to inhibit blood platelet aggregation of human platelet-rich plasma induced by TP-receptor agonist U 46619
row,SMILES,IC50 [nM]
1,O=C(O)CCC/C=C1/C[C@H]2C[C@@H](O)[C@H](C=NNC(=O)Nc3ccccc3)[C@H]2C1,100
2,O=C(O)CCC/C=C1\C[C@H]2C[C@@H](O)[C@H](C=NNC(=O)Nc3ccc(Cl)c(Cl)c3)[C@H]2C1,200
3,O=C(O)CCC/C=C1/C[C@H]2CC[C@H](C=NNC(=O)Nc3ccc(Cl)c(Cl)c3)[C@H]2C1,1800
4,O=C(O)CC/C=C1\C[C@H]2C[C@@H](O)[C@H](C=NNC(=O)Nc3cccc(Cl)c3)[C@H]2C1,5200
5,O=C(O)CCC/C=C1\C[C@H]2C[C@@H](O)[C@H](C=NNC(=O)Nc3cccc(Cl)c3)[C@H]2C1,130
6,O=C(O)CCC/C=C1\C[C@H]2CC[C@H](C=NNC(=O)Nc3ccc(Cl)c(Cl)c3)[C@H]2C1,9000
7,O=C(O)COC/C=C1\C[C@H]2C[C@@H](O)[C@H](C=NNC(=O)Nc3ccccc3)[C@H]2C1,6000
8,O=C(O)COC/C=C1/C[C@H]2C[C@@H](O)[C@H](C=NNC(=O)Nc3ccccc3)[C@H]2C1,1400
9,O=C(O)CCC/C=C1/CC2CCC([CH+][N-]NC(=O)Nc3ccc([N+](=O)[O-])cc3)C2C1 (stereo unspecified),580
10,O=C(O)CCC/C=C1/CC2CC(O)C([CH+][N-]NC(=O)Nc3ccc([N+](=O)[O-])cc3)C2C1 (stereo unspecified),50
11,O=C(O)CCC/C=C1/C[C@H]2CC[C@H](C=NNC(=O)Nc3ccccc3)[C@H]2C1,2300
12,O=C(O)CC/C=C1\CC2CC(O)C([CH+][N-]NC(=O)Nc3ccc([N+](=O)[O-])cc3)C2C1 (stereo unspecified),520
13,O=C(O)CCC/C=C1\C[C@H]2CC[C@H](C=NNC(=O)Nc3ccccc3)[C@H]2C1,12000
14,O=C(O)CC/C=C1\C[C@H]2C[C@@H](O)[C@H](C=NNC(=O)Nc3ccccc3)[C@H]2C1,26000
15,O=C(O)CCC/C=C1\C[C@H]2CC[C@H](C=NNC(=O)Nc3cccc(Cl)c3)[C@H]2C1,6500
16,O=C(O)COC/C=C1\C[C@H]2C[C@@H](O)[C@H](C=NNC(=O)Nc3cccc(Cl)c3)[C@H]2C1,1600
